Assays:
Design in all cases: key: 0: no positive effect; 10: slight positive effect; 20: clear positive effect; 30: strong positive effect
Brassica napus (BRSNS) = assay: In vivo analyses Part B: drought stress, appearance vs stressed control plants in categories (BRSNS); details: spray application 250 g/ha, category vs stressed control plants, 2-3 pots
Description: Seeds of monocotyledonous and dicotyledonous crop plants were sown in sandy loam in plastic pots, covered with soil or sand and cultivated in a greenhouse under good growth conditions. The test plants were treated at the early leaf stage (BBCH10-BBCH13). To assure uniform water supply before commencement of stress, the potted plants were supplied with water by dam irrigation prior to substance application. The inventive compounds, formulated in the form of wettable powders (WP), were sprayed onto the green parts of the plants as an aqueous suspension at an equivalent water application rate of 600 I/ha with addition of 0.2% wetting agent (e.g. agrotin). Substance application was followed immediately by stress treatment of the plants. Drought stress was induced by gradual drying out under the following conditions: “Day”: 14 hours with illumination at 26-30° C. “Night”: 10 hours without illumination at 18-20° C. The duration of the respective stress phases was guided mainly by the condition of the stressed control plants. It was ended (by re-irrigating and transfer to a greenhouse with good growth conditions) as soon as irreversible damage was observed on the stressed control plants. The end of the stress phase was followed by an about 4-7-day recovery phase, during which the plants were once again kept under good growth conditions in a greenhouse. The duration of the recovery phase was guided mainly by when the trial plants had attained a state which enabled visual scoring of potential effects, and was therefore variable. Once this juncture had been reached, the appearance of the plants treated with test substances was recorded in comparison to the stressed control plants by the following categories: [table] In order to rule out any influence on the effects observed by any fungicidal or insecticidal action of the test compounds, it was additionally ensured that the tests proceeded without fungal infection or insect infestation. For each substance and dosage, 2-3 pots were treated and evaluated. BRSNS=Brassica napus

Zea mays (ZEAMX) = assay: In vivo analyses Part B: drought stress, appearance vs stressed control plants in categories (ZEAMX); details: spray application 25 g/ha, category vs stressed control plants, 2-3 pots
Description: Seeds of monocotyledonous and dicotyledonous crop plants were sown in sandy loam in plastic pots, covered with soil or sand and cultivated in a greenhouse under good growth conditions. The test plants were treated at the early leaf stage (BBCH10-BBCH13). To assure uniform water supply before commencement of stress, the potted plants were supplied with water by dam irrigation prior to substance application. The inventive compounds, formulated in the form of wettable powders (WP), were sprayed onto the green parts of the plants as an aqueous suspension at an equivalent water application rate of 600 I/ha with addition of 0.2% wetting agent (e.g. agrotin). Substance application was followed immediately by stress treatment of the plants. Drought stress was induced by gradual drying out under the following conditions: “Day”: 14 hours with illumination at 26-30° C. “Night”: 10 hours without illumination at 18-20° C. The duration of the respective stress phases was guided mainly by the condition of the stressed control plants. It was ended (by re-irrigating and transfer to a greenhouse with good growth conditions) as soon as irreversible damage was observed on the stressed control plants. The end of the stress phase was followed by an about 4-7-day recovery phase, during which the plants were once again kept under good growth conditions in a greenhouse. The duration of the recovery phase was guided mainly by when the trial plants had attained a state which enabled visual scoring of potential effects, and was therefore variable. Once this juncture had been reached, the appearance of the plants treated with test substances was recorded in comparison to the stressed control plants by the following categories: [table] In order to rule out any influence on the effects observed by any fungicidal or insecticidal action of the test compounds, it was additionally ensured that the tests proceeded without fungal infection or insect infestation. For each substance and dosage, 2-3 pots were treated and evaluated. ZEAMX=Zea mays

[1] = test system: Triticum aestivum (TRZAS); assay: In vivo analyses Part B: drought stress, appearance vs stressed control plants in categories (TRZAS); details: spray application 250 g/ha, category vs stressed control plants, 2-3 pots
Description: Seeds of monocotyledonous and dicotyledonous crop plants were sown in sandy loam in plastic pots, covered with soil or sand and cultivated in a greenhouse under good growth conditions. The test plants were treated at the early leaf stage (BBCH10-BBCH13). To assure uniform water supply before commencement of stress, the potted plants were supplied with water by dam irrigation prior to substance application. The inventive compounds, formulated in the form of wettable powders (WP), were sprayed onto the green parts of the plants as an aqueous suspension at an equivalent water application rate of 600 I/ha with addition of 0.2% wetting agent (e.g. agrotin). Substance application was followed immediately by stress treatment of the plants. Drought stress was induced by gradual drying out under the following conditions: “Day”: 14 hours with illumination at 26-30° C. “Night”: 10 hours without illumination at 18-20° C. The duration of the respective stress phases was guided mainly by the condition of the stressed control plants. It was ended (by re-irrigating and transfer to a greenhouse with good growth conditions) as soon as irreversible damage was observed on the stressed control plants. The end of the stress phase was followed by an about 4-7-day recovery phase, during which the plants were once again kept under good growth conditions in a greenhouse. The duration of the recovery phase was guided mainly by when the trial plants had attained a state which enabled visual scoring of potential effects, and was therefore variable. Once this juncture had been reached, the appearance of the plants treated with test substances was recorded in comparison to the stressed control plants by the following categories: [table] In order to rule out any influence on the effects observed by any fungicidal or insecticidal action of the test compounds, it was additionally ensured that the tests proceeded without fungal infection or insect infestation. For each substance and dosage, 2-3 pots were treated and evaluated. TRZAS=Triticum aestivum

| Structure (SMILES) | Effect (BRSNS) (Brassica napus (BRSNS)) | Effect (ZEAMX) (Zea mays (ZEAMX)) | Effect (TRZAS) [1] |
| --- | --- | --- | --- |
| CCCOC(=O)/C=C(\C#CC(O)(c1ccccc1)C1(C#N)CC1)CC (stereo not shown) [I.1-609] | 10-20 | 20 | 10 |
| COC(=O)/C=C(/C)C#CC(O)(C(C)C)C1(C#N)CC1 (stereo not shown) [I.1-135] | 30 |  | 30 |
| CC/C(C#CC(O)(c1ccccc1)C1(C#N)CC1)=C/C(=O)OC (stereo not shown) [I.1-202] | 20 | 10-20 | 20 |
| CCOC(=O)/C=C(\C#CC(O)(C(C)C)C1(C#N)CC1)CC (stereo not shown) [I.1-103] | 30 | 10-20 | 10-20 |
| CCCOC(=O)/C=C(\C#CC(O)(C(C)C)C1(C#N)CC1)CC (stereo not shown) [I.1-605] | 20 |  | 20 |
